Measurements published in patent publication US8648116B2, “Derivatives of N-(arylamino) sulfonamides including polymorphs as inhibitors of MEK as well as compositions, methods of use and methods for preparing the same” (Ardea Biosciences, Inc., priority 2005, dated 2014).
Read-outs that look alike come from different tables or passages of the source. Marks after values point to notes of the source that are not given here.

Legend:
[1] = test system: MDA-MB231 breast adenocarcinoma cells; assay: Anchorage-dependent growth inhibition (ATP content, 48 hr); format: cell-based, human
human tumor cell lines = assay: In vitro cancer screen (SRB; GI50, TGI, LC50); conditions: for CC50: read-out: LC50
[2] = Pharmacokinetics in healthy volunteers following multiple doses; conditions: 20 mg
SK Mel28 melanoma cells = assay: Anchorage-dependent growth inhibition (ATP content, 48 hr); format: cell-based, human; conditions: SK Mel 28, separate study
[3] = test system: BxPC3 pancreatic adenocarcinoma cells; assay: as above; format: cell-based, human; conditions: BxPC3, 48 hr
[4] = Concentration-time profiles after a single dose of capsules; design: species or system human cancer patients; conditions: human, in vivo, oral, capsules of example 95A, Day 1; for AUC(0-t): read-out: AUC0-12hr
Description: Human cancer patients were administered a single dose of the 1 mg or 10 mg capsule composition described above in example 95A. For a 2 mg dose, patients were given 2×1 mg capsules; for a 4 mg dose, patients were given 4×1 mg capsules; for a 6 mg dose, patients were given 6×1 mg capsules; for a 10 mg dose, patients were given 1×10 mg capsule; for a 20 mg dose, patients were given 2×10 mg capsules.
The concentration-time profiles were monitored and are shown in FIG. 4 and in the table below: […]

A431 epidermoid cells = assay: Anchorage-independent growth inhibition (MTS, 7 days, non-binding plates); format: cell-based; conditions: Homo sapiens, A-431, 168 h, BRAF Normal, read-out: Anchorage-Independent GI50 (nM ± sd)
Colo205 tumor cells = assay: ED50 in Colo205 xenografts (Example 94D); format: in vivo, nu/nu mice
Text: Male nu/nu mice were implanted with Colo205 tumor cells. After 10 days animals were randomized by tumor size (range 126-256 mm^3) and treated with paclitaxel (IV, QODx5), vehicle or Compound A (PO, QDx14).

[5] = A549/ATCC (Non-Small Cell Lung Cancer)
[6] = EKVX (Non-Small Cell Lung Cancer)
[7] = HOP-62 (Non-Small Cell Lung Cancer)
[8] = HOP-92 (Non-Small Cell Lung Cancer)
[9] = NCI-H23 (Non-Small Cell Lung Cancer)
[10] = NCI-H226 (Non-Small Cell Lung Cancer)
[11] = NCI-H322M (Non-Small Cell Lung Cancer)
[12] = NCI-H460 (Non-Small Cell Lung Cancer)
[13] = NCI-H522 (Non-Small Cell Lung Cancer)

With `COc1cc(F)c(F)c(Nc2ccc(I)cc2F)c1NS(=O)(=O)C1(C[C@H](O)CO)CC1` the GI50 ([1]; MDA (MDA-MB231), 48 hr, ATP content) was over 1000 nM, the “growth arrest in 2-dimensional anchorage dependent assays” value ([1]; MDA-MB231 cells) was “do not show” and the GI50 (human tumor cell lines; 786-0 (Renal Cancer)) was 5130 nM. It also gave a TGI (human tumor cell lines; 786-0 (Renal Cancer)) of 23442 nM, a GI50 (human tumor cell lines; A498 (Renal Cancer)) of 191 nM and a TGI (human tumor cell lines; A498 (Renal Cancer)) of 4169 nM. For the same compound, the GI50 (human tumor cell lines; [5]) was 589 nM, the TGI (human tumor cell lines; [5]) was 64565 nM and the GI50 (human tumor cell lines; ACHN (Renal Cancer)) was 275 nM. The TGI (human tumor cell lines; ACHN (Renal Cancer)) was 21878 nM, the GI50 (human tumor cell lines; BT-549 (Breast Cancer)) was 5750 nM and the TGI (human tumor cell lines; BT-549 (Breast Cancer)) was 20893 nM. For the same compound, the GI50 (human tumor cell lines; CAKI-1 (Renal Cancer)) was 389 nM, the TGI (human tumor cell lines; CAKI-1 (Renal Cancer)) was 26915 nM and the GI50 (human tumor cell lines; CCRF-CEM (Leukemia)) was 17400 nM. The TGI (human tumor cell lines; CCRF-CEM (Leukemia)) was 60256 nM, the GI50 (human tumor cell lines; DU-145 (Prostate Cancer)) was 2140 nM and the TGI (human tumor cell lines; DU-145 (Prostate Cancer)) was 22387 nM. It also gave a GI50 (human tumor cell lines; [6]) of 214 nM, a TGI (human tumor cell lines; [6]) of 13804 nM and a GI50 (human tumor cell lines; HCC-2998 (Colon Cancer)) of 10 nM. For the same compound, the TGI (human tumor cell lines; HCC-2998 (Colon Cancer)) was 35 nM, the GI50 (human tumor cell lines; HCT-15 (Colon Cancer)) was 603 nM and the TGI (human tumor cell lines; HCT-15 (Colon Cancer)) was 16982 nM. For the same compound, the GI50 (human tumor cell lines; HCT-116 (Colon Cancer)) was 195 nM, the TGI (human tumor cell lines; HCT-116 (Colon Cancer)) was 12589 nM and the GI50 (human tumor cell lines; HL-60(TB) (Leukemia)) was 10 nM. For the same compound, the TGI (human tumor cell lines; HL-60(TB) (Leukemia)) was 100000 nM, the GI50 (human tumor cell lines; [7]) was 69 nM and the TGI (human tumor cell lines; [7]) was 12589 nM. The GI50 (human tumor cell lines; [8]) was 47 nM, the TGI (human tumor cell lines; [8]) was 324 nM and the GI50 (human tumor cell lines; HS 578T (Breast Cancer)) was 617 nM. The TGI (human tumor cell lines; HS 578T (Breast Cancer)) was 13490 nM, the GI50 (human tumor cell lines; HT29 (Colon Cancer)) was 26 nM and the TGI (human tumor cell lines; HT29 (Colon Cancer)) was 3090 nM. The GI50 (human tumor cell lines; IGROV1 (Ovarian Cancer)) was 18 nM, the TGI (human tumor cell lines; IGROV1 (Ovarian Cancer)) was 295 nM and the GI50 (human tumor cell lines; K-562 (Leukemia)) was 6610 nM. For the same compound, the TGI (human tumor cell lines; K-562 (Leukemia)) was 100000 nM, the GI50 (human tumor cell lines; KM12 (Colon Cancer)) was 229 nM and the TGI (human tumor cell lines; KM12 (Colon Cancer)) was 13490 nM. For the same compound, the GI50 (human tumor cell lines; LOX IMVI (Melanoma)) was 195 nM, the TGI (human tumor cell lines; LOX IMVI (Melanoma)) was 10715 nM and the GI50 (human tumor cell lines; M14 (Melanoma)) was 15 nM. For the same compound, the TGI (human tumor cell lines; M14 (Melanoma)) was 166 nM, the GI50 (human tumor cell lines; MALME-3M (Melanoma)) was 10 nM and the TGI (human tumor cell lines; MALME-3M (Melanoma)) was 14 nM. It also gave a GI50 (human tumor cell lines; MCF7 (Breast Cancer)) of 11000 nM, a TGI (human tumor cell lines; MCF7 (Breast Cancer)) of 30903 nM and a GI50 (human tumor cell lines; MDA-MB-231 (Breast Cancer)) of 69 nM. The TGI (human tumor cell lines; MDA-MB-231 (Breast Cancer)) was 10471 nM, the GI50 (human tumor cell lines; MDA-MB-435 (Breast Cancer)) was 35 nM and the TGI (human tumor cell lines; MDA-MB-435 (Breast Cancer)) was 12303 nM. The GI50 (human tumor cell lines; MDA-MB-468 (Breast Cancer)) was 19 nM, the TGI (human tumor cell lines; MDA-MB-468 (Breast Cancer)) was 10233 nM and the GI50 (human tumor cell lines; MOLT-4 (Leukemia)) was 11000 nM. The TGI (human tumor cell lines; MOLT-4 (Leukemia)) was 69183 nM, the GI50 (human tumor cell lines; [9]) was 56 nM and the TGI (human tumor cell lines; [9]) was 2884 nM. For the same compound, the GI50 (human tumor cell lines; [10]) was 3310 nM, the TGI (human tumor cell lines; [10]) was 24547 nM and the GI50 (human tumor cell lines; [11]) was 162 nM. It also gave a TGI (human tumor cell lines; [11]) of 15488 nM, a GI50 (human tumor cell lines; [12]) of 3630 nM and a TGI (human tumor cell lines; [12]) of 19498 nM. It also gave a GI50 (human tumor cell lines; [13]) of 5250 nM, a TGI (human tumor cell lines; [13]) of 29512 nM and a GI50 (human tumor cell lines; NCI/ADR-RES (Breast Cancer)) of 3470 nM. It also gave a TGI (human tumor cell lines; NCI/ADR-RES (Breast Cancer)) of 25704 nM, a GI50 (human tumor cell lines; OVCAR-3 (Ovarian Cancer)) of 2510 nM and a TGI (human tumor cell lines; OVCAR-3 (Ovarian Cancer)) of 17783 nM. It also gave a GI50 (human tumor cell lines; OVCAR-4 (Ovarian Cancer)) of 562 nM, a TGI (human tumor cell lines; OVCAR-4 (Ovarian Cancer)) of 16218 nM and a GI50 (human tumor cell lines; OVCAR-5 (Ovarian Cancer)) of 17 nM. The TGI (human tumor cell lines; OVCAR-5 (Ovarian Cancer)) was 12023 nM, the GI50 (human tumor cell lines; PC-3 (Prostate Cancer)) was 8130 nM and the TGI (human tumor cell lines; PC-3 (Prostate Cancer)) was 37154 nM. It also gave a GI50 (human tumor cell lines; RPMI-8226 (Leukemia)) of 26900 nM, a TGI (human tumor cell lines; RPMI-8226 (Leukemia)) of 100000 nM and a GI50 (human tumor cell lines; SF-268 (CNS Cancer)) of 2570 nM. For the same compound, the TGI (human tumor cell lines; SF-268 (CNS Cancer)) was 25704 nM, the GI50 (human tumor cell lines; SF-295 (CNS Cancer)) was 9330 nM and the TGI (human tumor cell lines; SF-295 (CNS Cancer)) was 23442 nM. The GI50 (human tumor cell lines; SF-539 (CNS Cancer)) was 1510 nM, the TGI (human tumor cell lines; SF-539 (CNS Cancer)) was 20417 nM and the GI50 (human tumor cell lines; SK-MEL-5 (Melanoma)) was 62 nM. For the same compound, the TGI (human tumor cell lines; SK-MEL-5 (Melanoma)) was 13804 nM, the GI50 (human tumor cell lines; SK-MEL-28 (Melanoma)) was 28 nM and the TGI (human tumor cell lines; SK-MEL-28 (Melanoma)) was 214 nM. The GI50 (human tumor cell lines; SK-OV-3 (Ovarian Cancer)) was 12900 nM, the TGI (human tumor cell lines; SK-OV-3 (Ovarian Cancer)) was 41687 nM and the GI50 (human tumor cell lines; SN12C (Renal Cancer)) was 851 nM. The TGI (human tumor cell lines; SN12C (Renal Cancer)) was 18621 nM, the GI50 (human tumor cell lines; SNB-19 (CNS Cancer)) was 251 nM and the TGI (human tumor cell lines; SNB-19 (CNS Cancer)) was 24547 nM. It also gave a GI50 (human tumor cell lines; SNB-75 (CNS Cancer)) of 302 nM, a TGI (human tumor cell lines; SNB-75 (CNS Cancer)) of 4467 nM and a GI50 (human tumor cell lines; SR (Leukemia)) of 38000 nM. It also gave a TGI (human tumor cell lines; SR (Leukemia)) of 100000 nM, a GI50 (human tumor cell lines; SW-620 (Colon Cancer)) of 39 nM and a TGI (human tumor cell lines; SW-620 (Colon Cancer)) of 12589 nM. The GI50 (human tumor cell lines; T-47D (Breast Cancer)) was 4900 nM, the TGI (human tumor cell lines; T-47D (Breast Cancer)) was 38019 nM and the GI50 (human tumor cell lines; TK-10 (Renal Cancer)) was 224 nM. For the same compound, the TGI (human tumor cell lines; TK-10 (Renal Cancer)) was 23442 nM, the GI50 (human tumor cell lines; U251 (CNS Cancer)) was 891 nM and the TGI (human tumor cell lines; U251 (CNS Cancer)) was 17378 nM. For the same compound, the GI50 (human tumor cell lines; UACC-62 (Melanoma)) was 14 nM, the TGI (human tumor cell lines; UACC-62 (Melanoma)) was 170 nM and the GI50 (human tumor cell lines; UACC-257 (Melanoma)) was 20 nM. The TGI (human tumor cell lines; UACC-257 (Melanoma)) was 10233 nM, the GI50 (human tumor cell lines; UO-31 (Renal Cancer)) was 158 nM and the TGI (human tumor cell lines; UO-31 (Renal Cancer)) was 11482 nM. The CC50 (human tumor cell lines; HCT-15 (Colon Cancer)) was 60300 nM, the CC50 (human tumor cell lines; HT29 (Colon Cancer)) was 29500 nM and the CC50 (human tumor cell lines; M14 (Melanoma)) was 29500 nM. For the same compound, the CC50 (human tumor cell lines; MDA-MB-435 (Breast Cancer)) was 41700 nM, the CC50 (human tumor cell lines; SF-539 (CNS Cancer)) was 60300 nM and the CC50 (human tumor cell lines; SK-MEL-28 (Melanoma)) was 22400 nM. The CC50 (human tumor cell lines; UACC-62 (Melanoma)) was 20900 nM, the “Rac AUCτ (accumulation index)” value [2] was 1.24 and the GI50 (SK Mel28 melanoma cells) was 105 nM. It also gave a GI50 [3] of over 1000 nM.

With `COc1cc(F)c(F)c(Nc2ccc(I)cc2F)c1NS(=O)(=O)C1(C[C@H](O)CO)CC1` [Compound A] the Cmax ([4]; 2 mg, 2 mg dose) was 0.111 ng/mL, the Tmax ([4]; 2 mg, 2 mg dose) was 2 h and the Cmax ([4]; 4 mg, 4 mg dose) was 0.292 ng/mL. The AUC(0-t) ([4]; 2 mg dose) was 0.7 ng·h/mL, the AUC(0-t) ([4]; 4 mg dose) was 2.26 ng·h/mL and the GI50 (A431 epidermoid cells) was 65 ± 19 nM. For the same compound, the “% TGI” value (Colo205 tumor cells; Compound A 2.5 mg/kg PO QDx14) was 47* %, the “Day 15 Tumor Volume” value (Colo205 tumor cells; Compound A 2.5 mg/kg PO QDx14) was 1187 ± 127 mm^3 and the “% TGI” value (Colo205 tumor cells; Compound A 5 mg/kg PO QDx14) was 48* %. The “Day 15 Tumor Volume” value (Colo205 tumor cells; Compound A 5 mg/kg PO QDx14) was 1175 ± 104 mm^3, the “% TGI” value (Colo205 tumor cells; Compound A 10 mg/kg PO QDx14) was 55* % and the “Day 15 Tumor Volume” value (Colo205 tumor cells; Compound A 10 mg/kg PO QDx14) was 1045 ± 160 mm^3. The “% TGI” value (Colo205 tumor cells; Compound A 25 mg/kg PO QDx14) was 70* % and the “Day 15 Tumor Volume” value (Colo205 tumor cells; Compound A 25 mg/kg PO QDx14) was 762 ± 81 mm^3.
